# From patent US20240382471A1, “GLUCAGON-LIKE PEPTIDE-1 RECEPTOR MODULATORS AND USES THEREOF” (HEPAGENE THERAPEUTICS (HK) LIMITED, priority 2021, published 2024)
# Molecular target: GLP1R (Homo sapiens, UniProt P43220)
# Experiment: GLP1R/CRE-Luc luciferase reporter gene assay (agonist activity)
# Format: cell-based
# Set-up: host or cells: HKE293 (so in the source)
# Details: HKE293-Human GLP1R/CRE-luc cells, 5 h at 37° C., read-out: EC50 (nM) Assay 2
# Experimental: GLP1R-mediated agonist activity was determined with a cell-based functional assay utilizing a britelite plus luciferase reporter gene assay system. The stable cell line overexpress GLP1R and target response element. The stimulation with GLP1R agonist results in the upregulation of intracellular cAMP, which regulate the activities of cAMP-response element binding protein (CREB) and CREB-Luc. Reagents and equipment used in the assay are listed below, followed by the protocol.
# • 1) Cell Line: HKE293-Human GLP1R/CRE-luc • 2) Complete Medium: DMEM+10% FBS+1×Penicillin-Streptomycin+400 μg/mL G418
# • a) Seed HKE293-Human GLP1R/CRE-luc cells at 20,000 cells/well into 384 well assay plate (6007680-50, PE) using complete medium and incubate overnight. • b) Prepare 6×compound working solution with Medium. • c) Add 5 μL 6×compound working solution into cell plate, incubate 5 h at 37° C. • d) Add 20 μl britelite plus Luciferase Assay Reagent into each well of 384-well assay plate. • e) Record the luminescence value on Envision plate reader.
# • 3.1% Activity is calculated as follow:
# % Activity=(Signalcmpd−SignalAve_VC)/(SignalAve_PC−SignalAve_VC)×100. • 3.2 Calculate EC50 and Plot effect-dose curve of cmpds:
# Y=Bottom+(Top−Bottom)/(1+10^((Log EC50−X)*HillSlope)) • X: log of agonist concentration; Y: % Activity.
# Sequence of GLP1R (P43220 24-463): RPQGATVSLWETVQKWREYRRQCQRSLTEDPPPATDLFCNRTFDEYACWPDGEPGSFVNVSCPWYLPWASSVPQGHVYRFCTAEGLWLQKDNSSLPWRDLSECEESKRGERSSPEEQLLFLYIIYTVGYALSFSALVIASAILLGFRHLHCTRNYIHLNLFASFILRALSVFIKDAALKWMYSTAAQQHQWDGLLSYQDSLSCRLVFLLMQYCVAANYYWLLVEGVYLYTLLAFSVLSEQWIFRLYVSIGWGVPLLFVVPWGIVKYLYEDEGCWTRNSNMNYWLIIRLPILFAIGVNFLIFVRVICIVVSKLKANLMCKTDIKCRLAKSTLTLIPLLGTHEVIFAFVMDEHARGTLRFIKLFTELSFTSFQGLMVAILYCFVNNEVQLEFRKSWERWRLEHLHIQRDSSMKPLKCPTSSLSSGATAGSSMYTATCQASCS
row,EC50 [nM],SMILES
1,105,"COc1cc(C#N)ccc1COc1nc(C23CCN(Cc4nc5c(OC)cc(C(=O)O)cc5n4C[C@@H]4CCO4)CC2C3)ncc1C (stereo partly drawn) [Compound 1-33, 2-((6-(4-((4-cyano-2-methoxybenzyl)oxy)-5-methylpyrimidin-2-yl)-3-azabicyclo[4.1.0]heptan-3-yl)methyl)-4-methoxy-1-(((S)-oxetan-2-yl)methyl)-1H-benzo[d]imidazole-6-carboxylic acid]"
2,0.49,"[2H]C([2H])([2H])Oc1cc(C(=O)O)cc2c1nc(CN1CCC3(c4cccc(OCc5ccc(C#N)cc5OC)n4)CC3C1)n2C[C@@H]1CCO1 (stereo partly drawn) [Compound 1-32, 2-((6-(6-((4-cyano-2-methoxybenzyl)oxy)pyridin-2-yl)-3-azabicyclo[4.1.0]heptan-3-yl)methyl)-4-(methoxy-d3)-1-(((S)-oxetan-2-yl)methyl)-1H-benzo[d]imidazole-6-carboxylic acid]"
3,1.06,"COc1cc(C(F)(F)F)ccc1COc1ccnc(C23CCN(Cc4nc5c(OC)cc(C(=O)O)cc5n4C[C@@H]4CCO4)CC2C3)n1 (stereo partly drawn) [Compound 1-34, 4-methoxy-2-((6-(4-((2-methoxy-4-(trifluoromethyl)benzyl)oxy)pyrimidin-2-yl)-3-azabicyclo[4.1.0]heptan-3-yl)methyl)-1-(((S)-oxetan-2-yl)methyl)-1H-benzo[d]imidazole-6-carboxylic acid]"
4,0.79,"COc1cc(C#N)ccc1COc1ccnc(C23CCN(Cc4nc5c(OC)cc(C(=O)O)cc5n4C[C@@H]4CCO4)CC2C3)n1 (stereo partly drawn) [Compound 1-38, 2-((6-(4-((4-cyano-2-methoxybenzyl)oxy)pyrimidin-2-yl)-3-azabicyclo[4.1.0]heptan-3-yl)methyl)-4-methoxy-1-(((S)-oxetan-2-yl)methyl)-1H-benzo[d]imidazole-6-carboxylic acid]"
5,9.38,"COc1c(COc2cccc(C34CCN(Cc5nc6c(OC)cc(C(=O)O)cc6n5C[C@@H]5CCO5)CC3C4)n2)ccc(C#N)c1F (stereo partly drawn) [Compound 1-36, 2-((6-(6-((4-cyano-3-fluoro-2-methoxybenzyl)oxy)pyridin-2-yl)-3-azabicyclo[4.1.0]heptan-3-yl)methyl)-4-methoxy-1-(((S)-oxetan-2-yl)methyl)-1H-benzo[d]imidazole-6-carboxylic acid]"
6,497,"COc1ccc(COc2cccc(C34CCN(Cc5nc6ccc(C(=O)O)cc6n5C[C@@H]5CCO5)CC3C4)n2)c(F)c1 (stereo partly drawn) [Compound 1-37, 2-((6-(6-((2-fluoro-4-methoxybenzyl)oxy)pyridin-2-yl)-3-azabicyclo[4.1.0]heptan-3-yl)methyl)-1-(((S)-oxetan-2-yl)methyl)-1H-benzo[d]imidazole-6-carboxylic acid]"
7,3.85,"COc1cc(Cl)ccc1COc1ccnc(C23CCN(Cc4nc5c(OC)cc(C(=O)O)cc5n4C[C@@H]4CCO4)CC2C3)n1 (stereo partly drawn) [Compound 1-47, 2-((6-(4-((4-chloro-2-methoxybenzyl)oxy)pyrimidin-2-yl)-3-azabicyclo[4.1.0]heptan-3-yl)methyl)-4-methoxy-1-(((S)-oxetan-2-yl)methyl)-1H-benzo[d]imidazole-6-carboxylic acid]"
8,132,"COc1cc(C#N)ccc1COc1nc(C23CCN(Cc4nc5ccc(C(=O)O)cc5n4C[C@@H]4CCO4)CC2C3)ncc1F (stereo partly drawn) [Compound 1-31, 2-((6-(4-((4-cyano-2-methoxybenzyl)oxy)-5-fluoropyrimidin-2-yl)-3-azabicyclo[4.1.0]heptan-3-yl)methyl)-1-(((S)-oxetan-2-yl)methyl)-1H-benzo[d]imidazole-6-carboxylic acid]"
9,16,"COc1cc(C#N)ccc1COc1ccnc(C23CCN(Cc4nc5c(OC)cc(C(=O)O)cc5n4C[C@@H]4CCO4)CC2C3)n1 (single isomer, unassigned) [Compound 1-38-A]"
10,22.1,"COc1cc(C(=O)O)cc2c1nc(CN1CCC3(c4nccc(OCc5ccc(C#N)cc5OC(C)C)n4)CC3C1)n2C[C@@H]1CCO1 (stereo partly drawn) [Compound 1-40, 2-((6-(4-((4-cyano-2-isopropoxybenzyl)oxy)pyrimidin-2-yl)-3-azabicyclo[4.1.0]heptan-3-yl)methyl)-4-methoxy-1-(((S)-oxetan-2-yl)methyl)-1H-benzo[d]imidazole-6-carboxylic acid]"
11,0.3,"CCn1cncc1Cn1c(CN2CCC3(c4cccc(OCc5ccc(C#N)cc5OC)n4)CC3C2)nc2ccc(C(=O)O)cc21 (centres unmarked) [Compound 1-44, 2-((6-(6-((4-cyano-2-methoxybenzyl)oxy)pyridin-2-yl)-3-azabicyclo[4.1.0]heptan-3-yl)methyl)-1-((1-ethyl-1H-imidazol-5-yl)methyl)-1H-benzo[d]imidazole-6-carboxylic acid]"
12,0.49,"COc1cc(C#N)ccc1COc1nc(C23CCN(Cc4nc5c(OC)cc(C(=O)O)cc5n4C[C@@H]4CCO4)CC2C3)ncc1F (stereo partly drawn) [Compound 1-43, 2-((6-(4-((4-cyano-2-methoxybenzyl)oxy)-5-fluoropyrimidin-2-yl)-3-azabicyclo[4.1.0]heptan-3-yl)methyl)-4-methoxy-1-(((S)-oxetan-2-yl)methyl)-1H-benzo[d]imidazole-6-carboxylic acid]"

# The remaining lines, values behind:
row,SMILES,EC50 [nM]
1,"COc1cc(C#N)ccc1COc1cccc(C23CCN(Cc4nc5c(C)cc(C(=O)O)cc5n4C[C@@H]4CCO4)CC2C3)n1 (stereo partly drawn) [Compound 1-18, 2-((6-(6-((4-cyano-2-methoxybenzyl)oxy)pyridin-2-yl)-3-azabicyclo[4.1.0]heptan-3-yl)methyl)-4-methyl-1-(((S)-oxetan-2-yl)methyl)-1H-benzo[d]imidazole-6-carboxylic acid]",13.4
2,"COc1cc(C#N)ccc1COc1nccc(C23CCN(Cc4nc5ccc(C(=O)O)cc5n4C[C@@H]4CCO4)CC2C3)n1 (stereo partly drawn) [Compound 1-27, 2-((6-(2-((4-cyano-2-methoxybenzyl)oxy)pyrimidin-4-yl)-3-azabicyclo[4.1.0]heptan-3-yl)methyl)-1-(((S)-oxetan-2-yl)methyl)-1H-benzo[d]imidazole-6-carboxylic acid]",11.7
3,"COc1cc(C#N)ccc1COc1nc(C23CCN(Cc4nc5c(OC)cc(C(=O)O)cc5n4C[C@@H]4CCO4)CC2C3)ccc1F (stereo partly drawn) [Compound 1-28, 2-((6-(6-((4-cyano-2-methoxybenzyl)oxy)-5-fluoropyridin-2-yl)-3-azabicyclo[4.1.0]heptan-3-yl)methyl)-4-methoxy-1-(((S)-oxetan-2-yl)methyl)-1H-benzo[d]imidazole-6-carboxylic acid]",0.46
4,"COc1cc(C#N)ccc1COc1cccc(C23CCN(Cc4nc5c(C6CC6)cc(C(=O)O)cc5n4C[C@@H]4CCO4)CC2C3)n1 (stereo partly drawn) [Compound 1-19, 2-((6-(6-((4-cyano-2-methoxybenzyl)oxy)pyridin-2-yl)-3-azabicyclo[4.1.0]heptan-3-yl)methyl)-4-cyclopropyl-1-(((S)-oxetan-2-yl)methyl)-1H-benzo[d]imidazole-6-carboxylic acid]",19
5,"COc1cc(C#N)ccc1COc1ccnc(C23CCN(Cc4nc5ccc(C(=O)O)cc5n4C[C@@H]4CCO4)CC2C3)n1 (single isomer, unassigned) [Compound 1-26-B]",7.54
6,"COc1cc(C#N)ccc1COc1cccc(C23CCN(Cc4nc5c(OC)cc(C(=O)O)cc5n4C[C@@H]4CCO4)CC2C3)n1 (stereo partly drawn) [Compound 1-24, 2-((6-(6-((4-cyano-2-methoxybenzyl)oxy)pyridin-2-yl)-3-azabicyclo[4.1.0]heptan-3-yl)methyl)-4-methoxy-1-(((S)-oxetan-2-yl)methyl)-1H-benzo[d]imidazole-6-carboxylic acid]",0.37
7,"COc1cc(Br)ccc1COc1cccc(C23CCN(Cc4nc5ccc(C(=O)O)cc5n4C[C@@H]4CCO4)CC2C3)n1 (stereo partly drawn) [Compound 1-16, 2-((6-(6-((4-bromo-2-methoxybenzyl)oxy)pyridin-2-yl)-3-azabicyclo[4.1.0]heptan-3-yl)methyl)-1-(((S)-oxetan-2-yl)methyl)-1H-benzo[d]imidazole-6-carboxylic acid]",24.8
8,"COc1cc(C#N)ccc1COc1cccc(C23CCN(Cc4nc5ccc(C(=O)O)cc5n4C[C@@H]4CCO4)CC2C3)n1 (single isomer, unassigned) [Compound 1-6-B]",4.98
9,"COc1cc(C#N)ccc1COc1cccc(C23CCN(Cc4nc5c(OC(F)(F)F)cc(C(=O)O)cc5n4C[C@@H]4CCO4)CC2C3)n1 (stereo partly drawn) [Compound 1-22, 2-((6-(6-((4-cyano-2-methoxybenzyl)oxy)pyridin-2-yl)-3-azabicyclo[4.1.0]heptan-3-yl)methyl)-1-(((S)-oxetan-2-yl)methyl)-4-(trifluoromethoxy)-1H-benzo[d]imidazole-6-carboxylic acid]",14.4
10,"COc1cc(C(F)(F)F)ccc1COc1cccc(C23CCN(Cc4nc5ccc(C(=O)O)cc5n4C[C@@H]4CCO4)CC2C3)n1 (stereo partly drawn) [Compound 1-14, 2-((6-(6-((2-methoxy-4-(trifluoromethyl)benzyl)oxy)pyridin-2-yl)-3-azabicyclo[4.1.0]heptan-3-yl)methyl)-1-(((S)-oxetan-2-yl)methyl)-1H-benzo[d]imidazole-6-carboxylic acid]",17.4
11,"COCc1ccc(COc2cccc(C34CCN(Cc5nc6ccc(C(=O)O)cc6n5C[C@@H]5CCO5)CC3C4)n2)c(OC)c1 (stereo partly drawn) [Compound 1-15, 2-((6-(6-((2-methoxy-4-(methoxymethyl)benzyl)oxy)pyridin-2-yl)-3-azabicyclo[4.1.0]heptan-3-yl)methyl)-1-(((S)-oxetan-2-yl)methyl)-1H-benzo[d]imidazole-6-carboxylic acid]",439
